Experimental data taken from patent US20100168038A1, “USE OF COMPOUNDS IN COMBINATION WITH GAMMA-IRRADIATION FOR THE TREATMENT OF CANCER” (priority 2006, published 2010).
“And” between values parts separate entries of the source, which are not always exact repeats. Equal values may be shown once. Residues, ends and D or L forms follow the SMILES beside them.

Tested on: EL-4 lymphoma cells
Test: Tumor growth of EL-4 lymphoma in C57Bl/6 mice, compound with gamma-irradiation
Type: in vivo, mouse
Details: for tumor volume: single mouse; for tumor volume, mean: group mean
From the text: Tumor Growth Experiments. Tumor cells were washed in PBS and resuspended in a volume of 200 micro-l per inoculate. The cells were then inoculated into the right flank at 10^6 per mouse and growth of the tumor was monitored by measurement two times per week. The initiation of anti-tumor treatment of the mice was to some extent individualized according to when tumor growth started in each mouse. The mice were irradiated with 4 Gy prior to tumor inoculation in order to inhibit anti-tumor immune responses. The tumor volume was calculated as the mean volume in mice with tumors growth, according to (a1×a2×a3)/2 (the numbers ai denote tumor diameter, width and depth). The time of first palpation varied between different mice, although the general pattern of growth was similar in virtually all of the mice. In most diagrams a log-scale is used to better visualize the therapeutic effects against small tumors, i.e. the presence of complete rejections. For inhibition of TPPII in vivo we made intraperitoneal injections with 13.8 mg per kg of body weight (14 micro-l of a 50 mM solution/mouse) of the Subtilisin inhibitor Z-Gly-Leu-Ala-OH (Z-GLA-OH, Bachem, Weil am Rhein, Germany) twice per week, diluted into 200 micro-l PBS. All gamma-irradiations were full body exposures.
Table 3 contains further in vivo data, showing tumor volume in mm^3, in groups of 7-8 mice, according to the EL-4 tumor model described above. 1.000.000 EL-4 lymphoma cells were inoculated subcutaneously at day 0. No palpable tumors were observed until day 22. At each treatment (twice weekly) mice with palpable tumors were given 400 Rads irradiation alone, or in combination with 14 micro-l 50 mM solution of Z-GLA-OH. Mice with no palpable tumors were not treated, i.e. in mice with rejected tumors, treatment was terminated and the mice were kept under observation.
All mice were 400 Rad (1 Gy=100 Rad) gamma-irradiated at day 0, a standard procedure to improve tumor acceptance. The compound was inoculated intraperitoneally, whereas tumors were always inoculated subcutaneously.

[1] = EL-4, irradiation + Z-GLA-OH, day 26
[2] = EL-4, irradiation + Z-GLA-OH, day 30
[3] = EL-4, irradiation + Z-GLA-OH, day 34
[4] = EL-4, irradiation + Z-GLA-OH, day 37
[5] = EL-4, irradiation + Z-GLA-OH, day 41
[6] = EL-4, irradiation + Z-GLA-OH, day 44
[7] = EL-4, irradiation + Z-GLA-OH, day 48
[8] = EL-4, irradiation + Z-GLA-OH, day 55
[9] = EL-4, irradiation + Z-GLA-OH, day 62
[10] = EL-4, irradiation + Z-GLA-OH, day 65
[11] = EL-4, irradiation + Z-GLA-OH, day 72
[12] = EL-4, irradiation + Z-GLA-OH, day 78

CC(C)C[C@H](NC(=O)CNC(=O)OCc1ccccc1)C(=O)N[C@@H](C)C(=O)O [Z-GLA-OH, Z-Gly-Leu-Ala-OH] (HELM PEPTIDE1{[O=C(OCc1ccccc1)[*:2]].G.L.A}$$$$V2.0)
period of observation without re-growth of tumors after treatment was cancelled (EL-4, after 4 Gy + Z-GLA-OH 13.8 mg/kg): over 3 months
tumor volume (EL-4, irradiation 400 Rads + Z-GLA-OH 14 micro-l 50 mM i.p., day 22): 6.00 mm^3 and 0.50 mm^3 (5×) and 4.00 mm^3
tumor volume, mean (EL-4, irradiation + Z-GLA-OH, day 22): 2.06 mm^3
tumor volume, mean [1]: 84.69 mm^3
tumor volume [1]: 108.00 mm^3 (3×) and 126.00 mm^3 and 75.00 mm^3 and 50.00 mm^3 and 40.00 mm^3 and 62.50 mm^3
tumor volume, mean [2]: 49.94 mm^3
tumor volume [2]: 108.00 mm^3 (2×) and 13.50 mm^3 and 18.00 mm^3 and 24.00 mm^3 and 32.00 mm^3 and 48.00 mm^3 (2×)
tumor volume, mean [3]: 20.75 mm^3
tumor volume [3]: 10.00 mm^3 and 0.50 mm^3 and 62.50 mm^3 and 24.00 mm^3 (2×) and 13.50 mm^3 (2×) and 18.00 mm^3
tumor volume, mean [4]: 12.69 mm^3
tumor volume [4]: 8.00 mm^3 and 18.00 mm^3 and 12.00 mm^3 and 6.00 mm^3 (2×) and 27.00 mm^3 and 24.00 mm^3 and 0.50 mm^3
tumor volume, mean [5]: 3.88 mm^3
tumor volume [5]: 0.50 mm^3 (3×) and 4.00 mm^3 (4×) and 13.50 mm^3
tumor volume, mean [6]: 1.14 mm^3
tumor volume [6]: 0.50 mm^3 (4×) and 0.10 mm^3 and 2.00 mm^3 and 1.00 mm^3 and 4.00 mm^3
tumor volume, mean [7]: 0.18 mm^3
tumor volume [7]: 0.10 mm^3 (4×) and 0.50 mm^3 (2×) and 0.00 mm^3 (2×)
tumor volume, mean [8]: 0.07 mm^3
tumor volume [8]: 0.00 mm^3 (6×) and 0.10 mm^3 and 0.50 mm^3
tumor volume, mean [9]: 0.01 mm^3
tumor volume [9]: 0.10 mm^3 and 0.00 mm^3 (7×)
tumor volume, mean [10]: 0.01 mm^3
tumor volume [10]: 0.00 mm^3
tumor volume, mean [11]: 0.01 mm^3
tumor volume [11]: 0.10 mm^3 and 0.00 mm^3 (7×)
tumor volume, mean [12]: 0.00 mm^3
tumor volume [12]: 0.00 mm^3
tumor response, summary of Table 3 (EL-4, 400 Rads irradiation + 14 micro-l 50 mM Z-GLA-OH at each treatment (twice weekly)): complete rejection of established tumors
mice with tumor regression (partial effects) (EL-4, Z-GLA-OH 3.5 mg/kg and lower doses + 3 Gy gamma-irradiation doses): 2 out of 4
mice with complete tumor rejection (EL-4, Z-GLA-OH 6.9 mg/kg + 3 Gy gamma-irradiation doses): 3 out of 4
mice with complete rejection (EL-4, gamma-irradiation doses of 1 Gy + Z-GLA-OH injection): 1 out of 4
mice with complete rejection (EL-4, gamma-irradiation doses of 2 Gy + Z-GLA-OH injection): 2 out of 5
tumor response (EL-4, gamma-irradiation doses of 3 Gy + Z-GLA-OH injection): complete regression
tumor response (established EL-4 tumors, C57Bl/6 mice, 3-4 doses of 400 Rad (one dose/week) + Z-GLA-OH 13.8 mg/kg twice weekly, all mice tested): complete tumor regression
